Experimental data published in patent US10227350B2 (Gilead Sciences, Inc., priority 2016, dated 2019).

Biological target: PI3Kβ (Homo sapiens (Human), UniProt P42338)
Assay: TR-FRET enzymatic activity assay, PI3Kβ
Assay type: biochemical
Conditions: 2× Km ATP, 2 μM PIP2, 30 minutes at 25° C., read-out: IC50-PIP-Beta
Description: The compounds of formula (I) were characterized for their enzymatic activity against the PI3K isoforms. The activities were measured using a time-resolved fluorescence resonance energy transfer (TR-FRET) assay. TR-FRET monitored the formation of 3,4,5-inositol triphosphate molecule that competed with fluorescently labeled PIPS for binding to the GRP-1 pleckstrin homology domain protein.
Class I PI3K isoforms were expressed and purified as heterodimeric recombinant proteins. All assay reagents and buffers for the TR-FRET assay were purchased from Millipore. […] The compounds were added to the assay solution and incubated for 30 minutes at 25° C.

Sequence of PI3Kβ (P42338 whole entry): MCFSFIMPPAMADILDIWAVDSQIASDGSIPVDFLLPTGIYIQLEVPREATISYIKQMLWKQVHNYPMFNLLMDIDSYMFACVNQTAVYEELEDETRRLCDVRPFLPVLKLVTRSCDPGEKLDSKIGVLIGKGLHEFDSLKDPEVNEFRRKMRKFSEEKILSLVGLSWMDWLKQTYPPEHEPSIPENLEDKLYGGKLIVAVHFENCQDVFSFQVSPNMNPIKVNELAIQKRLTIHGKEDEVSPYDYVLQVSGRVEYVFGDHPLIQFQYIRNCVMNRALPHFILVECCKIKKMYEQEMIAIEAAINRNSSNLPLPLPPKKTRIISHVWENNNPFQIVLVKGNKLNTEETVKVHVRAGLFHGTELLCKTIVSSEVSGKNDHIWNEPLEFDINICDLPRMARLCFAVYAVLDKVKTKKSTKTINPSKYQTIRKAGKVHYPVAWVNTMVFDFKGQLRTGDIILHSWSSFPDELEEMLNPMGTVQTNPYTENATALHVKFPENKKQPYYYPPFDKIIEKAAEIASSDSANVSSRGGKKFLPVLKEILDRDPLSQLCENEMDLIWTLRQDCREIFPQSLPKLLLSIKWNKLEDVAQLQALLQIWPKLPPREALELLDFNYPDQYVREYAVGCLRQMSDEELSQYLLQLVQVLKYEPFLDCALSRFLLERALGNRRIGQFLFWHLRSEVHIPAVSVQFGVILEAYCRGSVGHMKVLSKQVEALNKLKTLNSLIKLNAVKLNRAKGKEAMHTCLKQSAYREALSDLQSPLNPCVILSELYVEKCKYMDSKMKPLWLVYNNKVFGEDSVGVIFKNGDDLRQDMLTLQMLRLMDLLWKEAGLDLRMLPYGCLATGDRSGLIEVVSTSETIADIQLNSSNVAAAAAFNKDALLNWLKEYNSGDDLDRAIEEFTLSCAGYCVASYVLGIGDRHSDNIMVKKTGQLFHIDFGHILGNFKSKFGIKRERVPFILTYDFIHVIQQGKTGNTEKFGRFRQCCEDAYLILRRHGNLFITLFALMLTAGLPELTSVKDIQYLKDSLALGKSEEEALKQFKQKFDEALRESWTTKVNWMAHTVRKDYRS
Sequence of PI3Kβ (P27986 whole entry partner): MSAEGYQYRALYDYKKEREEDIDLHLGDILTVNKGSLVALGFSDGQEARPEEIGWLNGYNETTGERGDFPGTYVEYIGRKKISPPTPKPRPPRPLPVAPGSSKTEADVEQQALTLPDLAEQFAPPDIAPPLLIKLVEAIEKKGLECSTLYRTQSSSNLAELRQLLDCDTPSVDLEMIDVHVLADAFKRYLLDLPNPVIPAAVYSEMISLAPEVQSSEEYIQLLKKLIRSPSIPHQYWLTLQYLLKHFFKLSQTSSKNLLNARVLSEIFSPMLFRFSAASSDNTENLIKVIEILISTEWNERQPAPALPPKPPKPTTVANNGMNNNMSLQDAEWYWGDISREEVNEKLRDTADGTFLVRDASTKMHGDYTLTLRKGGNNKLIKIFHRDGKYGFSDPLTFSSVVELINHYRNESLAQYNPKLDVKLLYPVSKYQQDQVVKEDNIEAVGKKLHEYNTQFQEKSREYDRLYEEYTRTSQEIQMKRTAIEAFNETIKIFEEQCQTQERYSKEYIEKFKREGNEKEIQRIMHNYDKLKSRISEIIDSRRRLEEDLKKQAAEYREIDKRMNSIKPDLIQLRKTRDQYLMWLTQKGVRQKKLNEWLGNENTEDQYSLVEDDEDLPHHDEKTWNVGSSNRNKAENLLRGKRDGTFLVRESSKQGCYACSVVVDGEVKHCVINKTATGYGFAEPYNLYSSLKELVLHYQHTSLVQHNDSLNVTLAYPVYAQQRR

Row | IC50 [nM] | SMILES
1 | 10 | Nc1nccc(-c2cc(-c3nnc[nH]3)c3ncn(-c4cc(N5CCNCC5)nc5ccccc45)c3c2)c1F [Example 162, 3-fluoro-4-(1-(2-(piperazin-1-yl)quinolin-4-yl)-4-(4H-1,2,4-triazol-3-yl)-1H-benzo[d]imidazol-6-yl)pyridin-2-amine]
2 | 10 | Cc1nc2c(-c3nnc[nH]3)cc(-c3ccnc(N)c3)cc2n1-c1ccnc2c(F)ccc(F)c12 [Example 48, 4-[3-(5,8-difluoroquinolin-4-yl)-2-methyl-7-(4H-1,2,4-triazol-3-yl)benzimidazol-5-yl]pyridin-2-amine]
3 | 9 | Cc1nc2c(-c3nnc[nH]3)cc(-c3ccnc(C#N)c3)cc2n1-c1ccnc2c(F)cccc12 (single isomer, unassigned) [Example 127, 4-(1-(8-fluoroquinolin-4-yl)-2-methyl-4-(4H-1,2,4-triazol-3-yl)-1H-benzo[d]imidazol-6-yl)picolinonitrile]
4 | 6 | NC(=O)c1cc(-c2ccnc(N)c2F)cc2c1nc(C1CC1)n2-c1ccnc2c(Cl)ccc(F)c12 [Example 25]
5 | 2 | Cc1nc2c(-c3nnc[nH]3)cc(-c3ccnc(C#N)c3)cc2n1-c1ccnc2cccc(F)c12 (single isomer, unassigned) [Example 131, 4-(1-(5-fluoroquinolin-4-yl)-2-methyl-4-(4H-1,2,4-triazol-3-yl)-1H-benzo[d]imidazol-6-yl)picolinonitrile]
6 | 2 | Cc1nc2c(-c3nnc[nH]3)cc(-c3ccnc(N)c3F)cc2n1-c1ccnc2c(Cl)cccc12 [Example 80, 4-(1-(8-chloroquinolin-4-yl)-2-methyl-4-(4H-1,2,4-triazol-3-yl)-1H-benzo[d]imidazol-6-yl)-3-fluoropyridin-2-amine]
7 | 140 | Cc1nnc(-c2cc(-c3ccnc(N)c3)cc3c2nc(C(C)C)n3-c2ccnc3c(Cl)ccc(F)c23)[nH]1 [Example 66, 4-[3-(8-chloro-5-fluoroquinolin-4-yl)-7-(5-methyl-4H-1,2,4-triazol-3-yl)-2-propan-2-ylbenzimidazol-5-yl]pyridin-2-amine]
8 | 400 | Cc1nc2c(-c3nnc[nH]3)cc(-c3ccnc(F)c3)cc2n1-c1ccnc2c(F)ccc(F)c12 (single isomer, unassigned) [Example 134, 5,8-difluoro-4-(6-(2-fluoropyridin-4-yl)-2-methyl-4-(4H-1,2,4-triazol-3-yl)-1H-benzo[d]imidazol-1-yl)quinoline]
9 | 15 | Nc1nccc(-c2cc(-c3nnc[nH]3)c3nc(C4CC4)n(-c4ccnc5c(F)ccc(F)c45)c3c2)c1F [Example 81, 4-[2-cyclopropyl-3-(5,8-difluoroquinolin-4-yl)-7-(4H-1,2,4-triazol-3-yl)benzimidazol-5-yl]-3-fluoropyridin-2-amine]
10 | 46 | Fc1nccc(-c2cc(-c3nnc[nH]3)c3ncn(-c4ccnc5c(F)ccc(F)c45)c3c2)c1F [Example 47, 4-[6-(2,3-difluoropyridin-4-yl)-4-(4H-1,2,4-triazol-3-yl)benzimidazol-1-yl]-5,8-difluoroquinoline]
11 | 4 | Cc1nc2c(-c3nnc[nH]3)cc(-c3ccncc3)cc2n1-c1ccnc2c(Cl)ccc(F)c12 [Example 37, 8-chloro-5-fluoro-4-[2-methyl-6-pyridin-4-yl-4-(4H-1,2,4-triazol-3-yl)benzimidazol-1-yl]quinoline]
12 | 57 | Cc1nc2c(-c3nnc[nH]3)cc(-c3ccnc(C#N)c3)cc2n1-c1ccnc2c(Cl)cccc12 (single isomer, unassigned) [Example 130, 4-(1-(8-chloroquinolin-4-yl)-2-methyl-4-(4H-1,2,4-triazol-3-yl)-1H-benzo[d]imidazol-6-yl)picolinonitrile]
13 | 28 | Cc1nc2c(-c3nnc[nH]3)cc(-c3ccnc(C#N)c3)cc2n1-c1ccnc2c(Cl)ccc(Cl)c12 (single isomer, unassigned) [Example 122, 4-(1-(5,8-dichloroquinolin-4-yl)-2-methyl-4-(4H-1,2,4-triazol-3-yl)-1H-benzo[d]imidazol-6-yl)picolinonitrile]
14 | 4 | Cc1nc2c(-c3nnc[nH]3)cc(-c3ccnc(C#N)c3)cc2n1-c1ccnc2cccc(F)c12 [Example 147, 4-(1-(5-fluoroquinolin-4-yl)-2-methyl-4-(4H-1,2,4-triazol-3-yl)-1H-benzo[d]imidazol-6-yl)picolinonitrile]
15 | 29 | Nc1cc(-c2cc(-c3nnc[nH]3)c3nc(C4CC4)n(-c4ccnc5c(Cl)cccc45)c3c2)ccn1 [Example 74, 4-[3-(8-chloroquinolin-4-yl)-2-cyclopropyl-7-(4H-1,2,4-triazol-3-yl)benzimidazol-5-yl]pyridin-2-amine]
16 | 10 | Cc1nc2c(-c3nnc[nH]3)cc(-c3ccncc3F)cc2n1-c1ccnc2c(Cl)cccc12 (single isomer, unassigned) [Example 137, 8-chloro-4-(6-(3-fluoropyridin-4-yl)-2-methyl-4-(4H-1,2,4-triazol-3-yl)-1H-benzo[d]imidazol-1-yl)quinoline]

Row | IC50 [nM] | SMILES
17 | 15 | Cc1nc2c(C(N)=O)cc(-c3ccncc3)cc2n1-c1ccnc2c(Cl)cccc12 [Example 13, 1-(8-chloroquinolin-4-yl)-2-methyl-6-pyridin-4-ylbenzimidazole-4-carboxamide]
18 | 160 | Cc1nc2c(-c3nnc[nH]3)cc(-c3ccnc(C#N)c3)cc2n1-c1ccnc2c(F)ccc(Cl)c12 (single isomer, unassigned) [Example 124, 4-(1-(5-chloro-8-fluoroquinolin-4-yl)-2-methyl-4-(4H-1,2,4-triazol-3-yl)-1H-benzo[d]imidazol-6-yl)picolinonitrile]
19 | 86 | NC(=O)c1cc(-c2ccncc2)cc2c1ncn2-c1ccnc2c(Cl)cccc12 [Example 5, 1-(8-chloroquinolin-4-yl)-6-pyridin-4-ylbenzimidazole-4-carboxamide]
20 | 10 | N#Cc1cc(-c2cc(-c3nnc[nH]3)c3ncn(-c4cc(N5CCNCC5)nc5ccccc45)c3c2)ccn1 [Example 167, 4-(1-(2-(piperazin-1-yl)quinolin-4-yl)-4-(4H-1,2,4-triazol-3-yl)-1H-benzo[d]imidazol-6-yl)picolinonitrile]
21 | 1 | Cc1nc2c(-c3nnc[nH]3)cc(-c3ccnc(C#N)c3)cc2n1-c1ccnc2c(Cl)ccc(Cl)c12 (single isomer, unassigned) [Example 121, 4-(1-(5,8-dichloroquinolin-4-yl)-2-methyl-4-(4H-1,2,4-triazol-3-yl)-1H-benzo[d]imidazol-6-yl)picolinonitrile]
22 | 5 | Cc1nc2c(-c3nnc[nH]3)cc(-c3ccncc3F)cc2n1-c1ccnc2c(Cl)cccc12 [Example 39, 8-chloro-4-[6-(3-fluoropyridin-4-yl)-2-methyl-4-(4H-1,2,4-triazol-3-yl)benzimidazol-1-yl]quinoline]
23 | 1600 | Cc1cc(-n2c(C)nc3c(C(N)=O)cc(-c4ccncc4)cc32)c2ccccc2n1 [Example 10, 2-methyl-1-(2-methylquinolin-4-yl)-6-pyridin-4-ylbenzimidazole-4-carboxamide]
24 | 36 | CCc1nc2c(-c3nnc[nH]3)cc(-c3ccnc(N)c3)cc2n1-c1ccnc2cccc(F)c12 [Example 54, 4-[2-ethyl-3-(5-fluoroquinolin-4-yl)-7-(4H-1,2,4-triazol-3-yl)benzimidazol-5-yl]pyridin-2-amine]
25 | 250 | Clc1cccc2c(-n3c(C4COC4)nc4c(-c5nnc[nH]5)cc(-c5ccncc5)cc43)ccnc12 [Example 36, 8-chloro-4-[2-(oxetan-3-yl)-6-pyridin-4-yl-4-(4H-1,2,4-triazol-3-yl)benzimidazol-1-yl]quinoline]
26 | 27 | Cc1nc2c(-c3nnc[nH]3)cc(-c3cc(F)ncc3F)cc2n1-c1ccnc2c(F)ccc(F)c12 [Example 41, 4-[6-(2,5-difluoropyridin-4-yl)-2-methyl-4-(4H-1,2,4-triazol-3-yl)benzimidazol-1-yl]-5,8-difluoroquinoline]
27 | 340 | Cc1cc(-c2cc(-c3nnc[nH]3)c3nc(C)n(-c4ccnc5c(F)ccc(F)c45)c3c2)cc(N)n1 [Example 90, 4-[3-(5,8-difluoroquinolin-4-yl)-2-methyl-7-(4H-1,2,4-triazol-3-yl)benzimidazol-5-yl]-6-methylpyridin-2-amine]
28 | 220 | Cc1nc2c(-c3nnc[nH]3)cc(-c3ccnc(C#N)c3)cc2n1-c1ccnc2c(Cl)ccc(F)c12 (single isomer, unassigned) [Example 136, 4-(1-(8-chloro-5-fluoroquinolin-4-yl)-2-methyl-4-(4H-1,2,4-triazol-3-yl)-1H-benzo[d]imidazol-6-yl)picolinonitrile]
29 | 87 | Cc1nc2c(-c3nnc[nH]3)cc(-c3ccnc(N)c3F)cc2n1-c1ccnc2c(Cl)ccc(Cl)c12 (single isomer, unassigned) [Example 119, 4-(1-(5,8-dichloroquinolin-4-yl)-2-methyl-4-(4H-1,2,4-triazol-3-yl)-1H-benzo[d]imidazol-6-yl)-3-fluoropyridin-2-amine]
30 | 180 | Cc1nc2c(-c3nnc[nH]3)cc(-c3ccnc(N)c3)cc2n1-c1ccnc2cc(F)ccc12 [Example 53, 4-[3-(7-fluoroquinolin-4-yl)-2-methyl-7-(4H-1,2,4-triazol-3-yl)benzimidazol-5-yl]pyridin-2-amine]
31 | 19 | Cc1nc2c(-c3nnc[nH]3)cc(-c3ccnc(N)c3)cc2n1-c1ccnc2cccc(F)c12 [Example 55, 4-[3-(5-fluoroquinolin-4-yl)-2-methyl-7-(4H-1,2,4-triazol-3-yl)benzimidazol-5-yl]pyridin-2-amine]
32 | 460 | Cc1nc2c(C(N)=O)cc(-c3ncnc(N)c3C#N)cc2n1-c1ccnc2c(F)ccc(F)c12 [Example 157, 6-(6-amino-5-cyanopyrimidin-4-yl)-1-(5,8-difluoroquinolin-4-yl)-2-methyl-1H-benzo[d]imidazole-4-carboxamide]
